According to patent US12343326B2, “Psychoactive medicines and their use for treating psychiatric and neurological conditions and disorders” (Transcend Therapeutics, Inc., priority 2021, dated 2025):

Key:
Assay in all cases: β-arrestin based GPCR screen (PathHunter / GPCRmax), antagonist mode
168 GPCRs [1] = biological target: 168 GPCRs (Homo sapiens, UniProt Q9H1C0)
168 GPCRs [2] = biological target: 168 GPCRs (Homo sapiens, UniProt O43614)
168 GPCRs [3] = biological target: 168 GPCRs (Homo sapiens, UniProt P25101); settings: EDNRA
168 GPCRs [4] = biological target: 168 GPCRs (Homo sapiens, UniProt P28336); settings: NMBR
168 GPCRs [5] = biological target: 168 GPCRs (Homo sapiens, UniProt P32238); settings: CCKAR, Antagonist
168 GPCRs [6] = biological target: 168 GPCRs (Homo sapiens, UniProt P41231)
168 GPCRs [7] = biological target: 168 GPCRs (Homo sapiens, UniProt P25090)
168 GPCRs [8] = biological target: 168 GPCRs (Homo sapiens, UniProt Q9HBW0)
168 GPCRs [9] = biological target: 168 GPCRs (Homo sapiens, UniProt Q9NSD7)
168 GPCRs [10] = biological target: 168 GPCRs (Homo sapiens, UniProt O95838); settings: GLP2R
168 GPCRs [11] = biological target: T1, 168 GPCRs (Homo sapiens, UniProt P24530); settings: EDNRB
T1 sequence (P24530 27-442): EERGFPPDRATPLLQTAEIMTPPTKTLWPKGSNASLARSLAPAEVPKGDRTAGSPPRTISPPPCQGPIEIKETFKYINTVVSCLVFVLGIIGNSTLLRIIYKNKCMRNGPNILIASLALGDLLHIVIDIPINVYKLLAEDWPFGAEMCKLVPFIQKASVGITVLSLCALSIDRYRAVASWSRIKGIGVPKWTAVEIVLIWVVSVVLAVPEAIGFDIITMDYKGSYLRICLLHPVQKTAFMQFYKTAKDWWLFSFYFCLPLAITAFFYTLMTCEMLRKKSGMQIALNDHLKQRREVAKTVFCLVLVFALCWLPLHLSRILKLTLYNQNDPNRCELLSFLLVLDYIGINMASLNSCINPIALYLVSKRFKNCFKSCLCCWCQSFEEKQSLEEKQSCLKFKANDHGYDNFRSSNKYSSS

168 GPCRs [12] = biological target: 168 GPCRs (Homo sapiens, UniProt Q96P65)
168 GPCRs [13] = biological target: 168 GPCRs (Homo sapiens, UniProt P55085)
168 GPCRs [14] = biological target: 168 GPCRs (Homo sapiens, UniProt Q9P296); settings: C5L2, Antagonist
168 GPCRs [15] = biological target: T2, 168 GPCRs (Homo sapiens, UniProt Q9Y5Y4)
T2 sequence (Q9Y5Y4 1-395): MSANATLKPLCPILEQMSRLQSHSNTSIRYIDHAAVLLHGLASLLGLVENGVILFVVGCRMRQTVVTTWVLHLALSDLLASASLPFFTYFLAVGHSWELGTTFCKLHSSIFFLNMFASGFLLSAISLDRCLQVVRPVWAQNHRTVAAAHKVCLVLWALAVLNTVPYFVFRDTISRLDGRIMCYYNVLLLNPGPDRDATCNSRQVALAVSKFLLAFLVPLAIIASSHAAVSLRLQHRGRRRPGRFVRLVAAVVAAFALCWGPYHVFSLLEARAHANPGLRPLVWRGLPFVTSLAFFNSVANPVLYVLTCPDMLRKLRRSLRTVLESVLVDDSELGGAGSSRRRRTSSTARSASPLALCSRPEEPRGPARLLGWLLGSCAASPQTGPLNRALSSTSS

168 GPCRs [16] = biological target: 168 GPCRs (Homo sapiens, UniProt Q16602); settings: Antagonist
168 GPCRs [17] = biological target: 168 GPCRs (Homo sapiens, UniProt P32245); settings: MC4R
Chain of 168 GPCRs (Homo sapiens, UniProt P32245) (P32245 whole entry): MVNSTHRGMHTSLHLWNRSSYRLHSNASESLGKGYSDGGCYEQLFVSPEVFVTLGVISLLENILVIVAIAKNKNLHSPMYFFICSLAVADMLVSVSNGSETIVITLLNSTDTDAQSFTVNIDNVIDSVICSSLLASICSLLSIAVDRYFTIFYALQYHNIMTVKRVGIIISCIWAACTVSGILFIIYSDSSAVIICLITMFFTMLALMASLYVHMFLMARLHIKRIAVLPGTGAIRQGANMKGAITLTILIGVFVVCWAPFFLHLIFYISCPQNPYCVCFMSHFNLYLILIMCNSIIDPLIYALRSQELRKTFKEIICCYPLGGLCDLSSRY

Chain of 168 GPCRs (Homo sapiens, UniProt Q16602) (Q16602 23-461): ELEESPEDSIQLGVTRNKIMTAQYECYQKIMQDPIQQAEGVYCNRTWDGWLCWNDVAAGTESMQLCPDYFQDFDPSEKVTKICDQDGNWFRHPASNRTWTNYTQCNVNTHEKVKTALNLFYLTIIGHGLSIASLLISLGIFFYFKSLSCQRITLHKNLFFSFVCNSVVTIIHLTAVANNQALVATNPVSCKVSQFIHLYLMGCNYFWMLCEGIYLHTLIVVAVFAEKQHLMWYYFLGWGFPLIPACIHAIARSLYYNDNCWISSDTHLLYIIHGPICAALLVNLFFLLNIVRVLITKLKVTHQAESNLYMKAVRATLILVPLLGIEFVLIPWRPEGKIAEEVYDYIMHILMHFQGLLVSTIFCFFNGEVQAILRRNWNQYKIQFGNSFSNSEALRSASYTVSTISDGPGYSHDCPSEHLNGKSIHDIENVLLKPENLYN
Chain of 168 GPCRs (Homo sapiens, UniProt Q9H1C0) (Q9H1C0 whole entry): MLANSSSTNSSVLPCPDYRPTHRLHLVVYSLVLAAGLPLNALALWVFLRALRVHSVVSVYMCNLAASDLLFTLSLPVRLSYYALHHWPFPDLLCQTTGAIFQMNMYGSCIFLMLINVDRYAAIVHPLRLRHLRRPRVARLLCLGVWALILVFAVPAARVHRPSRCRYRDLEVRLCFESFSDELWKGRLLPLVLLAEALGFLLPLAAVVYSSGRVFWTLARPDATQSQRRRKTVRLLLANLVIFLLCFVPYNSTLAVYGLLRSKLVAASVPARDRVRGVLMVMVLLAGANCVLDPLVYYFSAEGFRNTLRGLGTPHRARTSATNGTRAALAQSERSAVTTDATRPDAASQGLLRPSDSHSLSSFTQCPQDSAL
Chain of 168 GPCRs (Homo sapiens, UniProt P41231) (P41231 whole entry): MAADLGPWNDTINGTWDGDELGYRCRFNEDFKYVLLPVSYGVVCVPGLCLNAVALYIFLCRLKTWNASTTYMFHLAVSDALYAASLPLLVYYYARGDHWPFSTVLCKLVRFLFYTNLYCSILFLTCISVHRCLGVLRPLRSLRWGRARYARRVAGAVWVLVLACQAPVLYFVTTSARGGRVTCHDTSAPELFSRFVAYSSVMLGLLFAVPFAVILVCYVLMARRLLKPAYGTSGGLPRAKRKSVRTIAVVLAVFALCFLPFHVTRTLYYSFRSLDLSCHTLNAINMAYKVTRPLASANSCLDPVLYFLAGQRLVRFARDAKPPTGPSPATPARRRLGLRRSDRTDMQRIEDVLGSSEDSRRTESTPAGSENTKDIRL
Chain of 168 GPCRs (Homo sapiens, UniProt O95838) (O95838 whole entry): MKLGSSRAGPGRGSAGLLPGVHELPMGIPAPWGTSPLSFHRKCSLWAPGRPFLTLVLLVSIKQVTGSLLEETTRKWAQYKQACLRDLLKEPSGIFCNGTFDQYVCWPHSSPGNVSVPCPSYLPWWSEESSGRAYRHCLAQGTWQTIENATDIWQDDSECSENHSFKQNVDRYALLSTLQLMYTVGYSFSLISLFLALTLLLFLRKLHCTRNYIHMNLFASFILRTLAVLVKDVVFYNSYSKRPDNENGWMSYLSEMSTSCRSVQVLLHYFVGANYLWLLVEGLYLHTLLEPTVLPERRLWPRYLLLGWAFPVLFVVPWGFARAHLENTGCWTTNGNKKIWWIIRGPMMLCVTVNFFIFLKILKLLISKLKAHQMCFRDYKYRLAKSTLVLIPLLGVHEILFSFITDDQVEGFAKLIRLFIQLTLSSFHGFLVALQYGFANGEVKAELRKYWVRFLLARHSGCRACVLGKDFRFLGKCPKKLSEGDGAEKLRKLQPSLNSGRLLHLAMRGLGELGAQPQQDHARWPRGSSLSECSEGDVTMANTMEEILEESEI
Chain of 168 GPCRs (Homo sapiens, UniProt P32238) (P32238 whole entry): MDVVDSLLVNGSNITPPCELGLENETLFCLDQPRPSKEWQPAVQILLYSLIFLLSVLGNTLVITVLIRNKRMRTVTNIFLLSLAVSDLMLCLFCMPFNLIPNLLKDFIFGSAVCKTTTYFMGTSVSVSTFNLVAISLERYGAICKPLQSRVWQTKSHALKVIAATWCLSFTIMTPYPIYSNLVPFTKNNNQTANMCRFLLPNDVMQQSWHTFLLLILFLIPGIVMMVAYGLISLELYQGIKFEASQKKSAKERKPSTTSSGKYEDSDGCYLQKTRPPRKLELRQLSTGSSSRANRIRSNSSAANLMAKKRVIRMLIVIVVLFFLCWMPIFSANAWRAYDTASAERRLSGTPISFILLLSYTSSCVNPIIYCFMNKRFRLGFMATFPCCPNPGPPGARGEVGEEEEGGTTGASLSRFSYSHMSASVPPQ
Chain of 168 GPCRs (Homo sapiens, UniProt P25101) (P25101 21-427): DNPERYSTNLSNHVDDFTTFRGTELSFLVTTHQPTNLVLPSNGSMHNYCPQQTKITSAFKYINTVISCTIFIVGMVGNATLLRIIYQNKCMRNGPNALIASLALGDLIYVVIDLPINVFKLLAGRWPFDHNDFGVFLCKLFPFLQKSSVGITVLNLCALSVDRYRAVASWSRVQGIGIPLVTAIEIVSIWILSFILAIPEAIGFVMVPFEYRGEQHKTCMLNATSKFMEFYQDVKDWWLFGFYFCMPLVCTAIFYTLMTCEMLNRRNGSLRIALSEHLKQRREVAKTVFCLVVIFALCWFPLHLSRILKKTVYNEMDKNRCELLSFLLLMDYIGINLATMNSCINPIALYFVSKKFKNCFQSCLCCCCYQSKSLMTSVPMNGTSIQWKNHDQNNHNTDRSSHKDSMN
Chain of 168 GPCRs (Homo sapiens, UniProt P25090) (P25090 whole entry): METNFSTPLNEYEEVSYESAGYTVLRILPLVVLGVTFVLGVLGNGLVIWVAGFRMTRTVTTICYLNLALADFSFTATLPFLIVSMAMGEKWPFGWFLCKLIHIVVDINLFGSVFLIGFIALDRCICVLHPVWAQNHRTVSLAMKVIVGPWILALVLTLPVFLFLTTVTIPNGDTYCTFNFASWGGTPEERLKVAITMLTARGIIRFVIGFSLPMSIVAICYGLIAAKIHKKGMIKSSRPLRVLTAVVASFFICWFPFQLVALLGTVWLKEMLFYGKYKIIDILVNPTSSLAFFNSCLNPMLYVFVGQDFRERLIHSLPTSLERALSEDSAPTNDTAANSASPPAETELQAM
Chain of 168 GPCRs (Homo sapiens, UniProt Q96P65) (Q96P65 whole entry): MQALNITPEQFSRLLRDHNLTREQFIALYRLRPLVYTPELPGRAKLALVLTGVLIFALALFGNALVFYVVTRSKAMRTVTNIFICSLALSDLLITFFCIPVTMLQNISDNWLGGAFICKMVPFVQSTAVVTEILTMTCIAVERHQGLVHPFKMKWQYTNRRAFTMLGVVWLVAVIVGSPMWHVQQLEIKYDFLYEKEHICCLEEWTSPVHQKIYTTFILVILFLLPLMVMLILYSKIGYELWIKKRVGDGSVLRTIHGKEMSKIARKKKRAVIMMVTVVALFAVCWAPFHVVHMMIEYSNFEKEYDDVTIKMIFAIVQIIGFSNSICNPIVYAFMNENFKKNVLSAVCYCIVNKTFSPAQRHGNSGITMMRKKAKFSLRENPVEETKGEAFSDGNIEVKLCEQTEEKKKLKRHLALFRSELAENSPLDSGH
Chain of 168 GPCRs (Homo sapiens, UniProt O43614) (O43614 whole entry): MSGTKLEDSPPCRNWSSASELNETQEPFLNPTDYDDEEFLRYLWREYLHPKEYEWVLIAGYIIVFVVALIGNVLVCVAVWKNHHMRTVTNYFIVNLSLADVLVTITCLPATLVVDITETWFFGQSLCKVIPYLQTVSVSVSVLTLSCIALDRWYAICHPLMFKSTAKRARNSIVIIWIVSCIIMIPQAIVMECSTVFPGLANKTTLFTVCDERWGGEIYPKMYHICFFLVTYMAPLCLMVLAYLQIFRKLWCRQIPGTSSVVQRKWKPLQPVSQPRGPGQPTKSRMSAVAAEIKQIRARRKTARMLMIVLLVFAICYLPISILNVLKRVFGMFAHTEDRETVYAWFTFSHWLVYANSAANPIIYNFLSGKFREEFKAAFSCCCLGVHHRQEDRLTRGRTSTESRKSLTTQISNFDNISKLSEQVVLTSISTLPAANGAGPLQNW
Chain of 168 GPCRs (Homo sapiens, UniProt Q9P296) (Q9P296 whole entry): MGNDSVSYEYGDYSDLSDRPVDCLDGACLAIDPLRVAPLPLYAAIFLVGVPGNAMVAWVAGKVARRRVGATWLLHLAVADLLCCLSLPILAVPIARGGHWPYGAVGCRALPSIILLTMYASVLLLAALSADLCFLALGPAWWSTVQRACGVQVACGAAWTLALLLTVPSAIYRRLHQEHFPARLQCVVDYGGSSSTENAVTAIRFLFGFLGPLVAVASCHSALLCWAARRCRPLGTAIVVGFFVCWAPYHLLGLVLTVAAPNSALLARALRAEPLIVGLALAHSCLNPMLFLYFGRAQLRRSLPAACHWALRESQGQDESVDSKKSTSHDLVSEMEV
Chain of 168 GPCRs (Homo sapiens, UniProt P28336) (P28336 whole entry): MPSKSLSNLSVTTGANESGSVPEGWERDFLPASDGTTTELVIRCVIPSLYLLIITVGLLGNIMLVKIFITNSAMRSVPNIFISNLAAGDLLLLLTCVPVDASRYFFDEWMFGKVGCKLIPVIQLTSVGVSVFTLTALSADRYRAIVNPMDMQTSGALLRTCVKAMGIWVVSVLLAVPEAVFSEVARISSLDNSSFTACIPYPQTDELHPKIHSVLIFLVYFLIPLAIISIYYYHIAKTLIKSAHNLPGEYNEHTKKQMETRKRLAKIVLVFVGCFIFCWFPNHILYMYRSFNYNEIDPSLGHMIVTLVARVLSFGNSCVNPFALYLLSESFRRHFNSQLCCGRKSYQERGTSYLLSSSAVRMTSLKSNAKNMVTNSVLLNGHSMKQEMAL

Structure (SMILES): CNC(C)C(=O)c1ccc2c(c1)OCO2 (centres unmarked) [methylone, 3,4-methylenedioxy-N-methylcathinone]
- activity at 10 µM (168 GPCRs [1]; GPR92, Antagonist mode, 10 uM): 5.8%
- activity at 1 µM (168 GPCRs [1]; GPR92, Antagonist, 1 uM): -8%
- activity at 10 µM (168 GPCRs [2]; HCRTR2, Antagonist mode, 10 uM): 2.4%
- activity at 1 µM (168 GPCRs [2]; HCRTR2, Antagonist, 1 uM): 6.4%
- activity at 10 µM (168 GPCRs [3]; Antagonist mode, 10 uM): -11.3%
- activity at 1 µM (168 GPCRs [3]; Antagonist, 1 uM): -2.4%
- activity at 10 µM (168 GPCRs [4]; Antagonist mode, 10 uM): 13.2%
- activity at 1 µM (168 GPCRs [4]; Antagonist, 1 uM): 10.3%
- activity at 1 µM (168 GPCRs [5]; 1 uM): -4.3%
- activity at 10 µM (168 GPCRs [5]; 10 uM): -3.3%
- activity at 10 µM (168 GPCRs [6]; P2RY2, Antagonist mode, 10 uM): 1.8%
- activity at 1 µM (168 GPCRs [6]; P2RY2, Antagonist, 1 uM): 5.4%
- activity at 10 µM (168 GPCRs [7]; FPRL1, Antagonist mode, 10 uM): 3.9%
- activity at 1 µM (168 GPCRs [7]; FPRL1, Antagonist, 1 uM): 12.3%
- activity at 10 µM (168 GPCRs [8]; EDG4, Antagonist mode, 10 uM): -21%
- activity at 1 µM (168 GPCRs [8]; EDG4, Antagonist, 1 uM): -10.2%
- activity at 10 µM (168 GPCRs [9]; RXFP3, Antagonist mode, 10 uM): 32.6%
- activity at 1 µM (168 GPCRs [9]; RXFP3, Antagonist, 1 uM): 23.1%
- activity at 10 µM (168 GPCRs [10]; Antagonist mode, 10 uM): 5.4%
- activity at 1 µM (168 GPCRs [10]; Antagonist, 1 uM): 5.4%
- activity at 10 µM (168 GPCRs [11]; Antagonist mode, 10 uM): 10.9%
- activity at 1 µM (168 GPCRs [11]; Antagonist, 1 uM): 17.5%
- activity at 10 µM (168 GPCRs [12]; GPR103, Antagonist mode, 10 uM): 7%
- activity at 1 µM (168 GPCRs [12]; GPR103, Antagonist, 1 uM): 4.1%
- activity at 10 µM (168 GPCRs [13]; F2RL1, Antagonist mode, 10 uM): 16.2%
- activity at 1 µM (168 GPCRs [13]; F2RL1, Antagonist, 1 uM): -26.8%
- activity at 1 µM (168 GPCRs [14]; 1 uM): 10%
- activity at 10 µM (168 GPCRs [14]; 10 uM): 1.4%
- activity at 10 µM (168 GPCRs [15]; CRTH2, Antagonist mode, 10 uM): 8.9%
- activity at 1 µM (168 GPCRs [15]; CRTH2, Antagonist, 1 uM): 9%
- activity at 1 µM (168 GPCRs [16]; CALCRL-RAMP1): 4.7%
- activity at 10 µM (168 GPCRs [16]; CALCRL-RAMP1): 7%
- activity at 1 µM (168 GPCRs [16]; CALCRL-RAMP2): 19.1%
- activity at 10 µM (168 GPCRs [16]; CALCRL-RAMP2): 7%
- activity at 1 µM (168 GPCRs [16]; CALCRL-RAMP3): -18.5%
- activity at 10 µM (168 GPCRs [16]; CALCRL-RAMP3): -7.5%
- activity at 10 µM (168 GPCRs [17]; Antagonist mode, 10 uM): -14%
- activity at 1 µM (168 GPCRs [17]; Antagonist, 1 uM): -5.2%
